Assay [1] concerns MB49 bladder cancer cells. Briefly: Tumor growth inhibition by peptide vaccines in the mouse bladder cancer treatment model. Format: in vivo, C57BL/6 mice. Conditions: 3×10^5 MB49 cells s.c. on Day 0; peptide 100 μg/100 μL + CpG ODN 1826 10 μM s.c. on day 3, 6, 9, 12, 15, 18, 21; tumor size every 3 days; vs DPBS and CpG groups. Here is the method: Cancer cells and animal model: MB49 bladder cancer cells were grown in DMEM containing 10% FBS (Fetal Bovine Serum, Gibco, 10099141C) and 1% PS (Penicillin-Streptomycin-Glutamine, Gibco, 10378016). 3×10^5 MB49 cancer cells were resuspended in 100 μL of DPBS and injected subcutaneously into a lower back of male C57BL/6 mice (6-8 weeks old), respectively to construct a mouse bladder cancer treatment model. After the initial implantation of tumors, the mice developed tumors around 5 days, and after tumor formation, the tumor growth was monitored every other 3 days, and a long diameter (a) and a short diameter (b) of the tumor were measured with a vernier caliper, and the size of each solid tumor was calculated according to the solid tumor size V=axbxb/2, and a tumor growth curve was plotted. […]
FIG. 2 is a graph showing the detection results of a tumor growth inhibition assay of antigenic epitope peptides derived from various genes tested. […] The tumor size in the mice was detected every 3 days.
FIG. 3 is a graph showing the detection results of testing the inhibitory effect of mixed peptide vaccines on tumor growth after vaccines are prepared by mixing the effective antigenic epitope peptides. […] The tumor size in the mice was detected every 3 days. […]

Assay [2] relates to splenocytes (IFN-γ secreting T cells). Nature of the assay: IFN-γ ELISPOT of splenocytes co-cultured with peptides. In kind it is cell-based. Conditions: splenocytes of immunized mice, 5×10^5/well, co-cultured with peptide (10 μg) for 20 h; vs DPBS and CpG groups. Here is the method: Isolate splenocytes: Spleens were gently mashed and filtered through a 70-μm strainer (Falcon, Corning, Germany), and then collected into a 15 mL centrifuge tube. After adding 1 mL erythrocyte lysis buffer and washing in PBS, cells were collected for ELISPOT assay.
Enzyme-linked immunospot assay (ELISPOT): splenocytes were isolated according to the above method and were co-cultured with different polypeptides (10 μg) at 5×10^5/well for 20 h. The size and number of IFN-γ positive spots were calculated by using Adobe Photoshop CS6 software.
FIGS. 5A and 5B is a graph showing the detection results of the ability of specific T cells to secrete IFN-γ induced by tumor antigen epitope peptides. In FIGS. 5A and 5B, the experimental mice were euthanized, the monocytes derived from spleens were co-cultured with different peptides for 20 h to detect the secretion of IFN-γ by ELISPOT assay according to the manufacturer's instructions. Spleens were gently mashed and monocytes were isolated using a lymphocyte separation medium. The monocytes were incubated into wells of an ELISPOT plate and stimulated synchronously. The cells were incubated in an incubator at 37° C. and cytokines were captured. The number of T cells specifically secreting IFN-γ in splenocytes of the immunized mice can be detected by detecting the formation of spots.

“Also recorded” adds a separate entry of the source.

As to FYMMPVNSEVM [NUF-2], the “Inhibition of tumor growth (tumor size)” value in assay [1] was “can effectively inhibit the growth of bladder cancer; also recorded: significantly inhibited the growth of bladder cancer; also recorded: most significant tumor-inhibiting effects”. In addition, in assay [2], the “Specific T-cell response (IFN-γ secretion, ELISPOT)” value is listed as “can strongly stimulate the immune response of specific T cells; also recorded: significant T-cell responses; also recorded: strongest T-cell response”.
Regarding VHLAKSLPL [CENPM], the “Inhibition of tumor growth (tumor size)” value in assay [1] is listed as “partial tumor growth inhibitory effect; also recorded: did not show significant tumor inhibition; also recorded: does not show strong anti-tumor effects”. The “Specific T-cell response (IFN-γ secretion, ELISPOT)” value in assay [2] was “can strongly stimulate the immune response of specific T cells; also recorded: significant T-cell responses; also recorded: can induce T-cell responses”.

Values taken from patent publication US20240398919A1, “EPITOPE PEPTIDE FOR TUMOR-ASSOCIATED ANTIGEN AND USE THEREOF” (SHENZHEN INSTITUTES OF ADVANCEDTECHNOLOGY CHINESE ACADEMY …, priority 2023, published 2024).
